# Test results published in patent US6291488A, “Preventing protozoal infections” (Glaxo Wellcome Inc., priority 1992, dated 2001).
# Where “and” joins values, the source holds several entries; their conditions need not be identical. Equal values may be shown once.
# Experiments:
# [1] = tested on: P. falciparum W-2 (multi-drug resistant W-2 clone); assay: In vitro drug combination sensitivity (Desjardins hypoxanthine incorporation), W-2 clone; format: cell-based; settings: drug combined with compound of Example 1, positive = synergistic, negative = antagonism, 0 = additive
# Method: (§1) Antimalarial activity in this system is assessed by inhibition of radiolabelled hypoxanthine incorporation into parasites by graded concentrations of drugs.
# (§2) The drugs tested and their solvents are listed below:
# (§3) In order to study drug combinations, drug solutions at starting concentrations were combined in various ratios and 1:5,1:2,2:1 and 5:1). […] Serial 1:3 dilutions of the drugs with media were made to fill the 96-well microtitre plate using a 12-channel pipetter. To evaluate drugs classified as dihydrofolic acid reductase (DHFR) inhibitors, modified culture medium was used which contained only physiologic concentrations of folic acid and PABA.
# (§4) Individual IC50 s were calculated using the "MINSQ" program from Micromath Scientific Software. Each set of paired data was fitted to the hyperbolic tangent function used by Desjardins.
# (§5) An isobologram was constructed by fitting the data to the equation:
# (§6) Y1-[Xi /(Xi +e^I *(1-Xi))]
# (§7) I=interaction parameter indicating degree of reversal
# Positive values of I indicated a synergistic combination, negative values indicated antagonism and I=O indicated additive interaction. […]
# [2] = tested on: P. falciparum D-6 (drug-sensitive but melfloquine resistant D-6 clone); assay: In vitro drug combination sensitivity (Desjardins hypoxanthine incorporation), D-6 clone; format: cell-based; settings: drug combined with compound of Example 1, positive = synergistic, negative = antagonism, 0 = additive
# Method: as §1, §2, §3, §4, §5, §6, §7
# (§8) Positive values of I indicated a synergistic combination, negative values indicated antagonism and I=O indicated additive interaction.
# (§9) The optimum ratio of the combination with proguanil was estimated for each of the three strains of malaria parasite by determining the ratio of the IC50 of proguanil to the IC50 of the compound of Formula (II).
# T. gondii C56 strain = assay: Anti-Toxoplasma activity in vivo, mouse model of T. gondii; design: species or system T. gondii; CBA/CA mice; settings: oral gavage; for Mean Time to Death: 10 days
# From the text: Comparison of anti-Toxoplasma activities in vivo of compound of Example 1, proguanil and combinations thereof
# Activities of the compounds and combinations were examined in a mouse model of T. gondii, using the increase in time to death and percent survival of the mice as measures of drug activity.
# Groups of 10, 20 gm CBA/CA mice were infected orally by gavage with 6 cysts of the C56 strain of T. gondii and drug treatment was started 3 days later and continued for 10 day. All drugs were administered orally by gavage. The following groups were examined:
# All animals were examined twice daily for 30 days and all deaths recorded.
# Pneumocystis = assay: Anti-Pneumocystis activity in vivo, scid mouse model of Pneumocystis pneumonia; design: species or system P. carinii; scid mice; key to Mean Score ±SE: score 0 = no infection, +4 = very heavy infection; settings: for number of mice with SCORE 0: 0 = no infection; for % of Control: mean score
# Method: Comparison of anti-Pneumocystis activities in vivo of compound of Example 1 proguanil and combinations thereof
# Activities of the compounds and combinations were examined in a scid mouse model of Pneumocystis pneumonia.
# The level of infection of mice in each group was measured using standard lung impression smears and immunofluorescence tests. A score was assigned to each mouse where 0=no infection and +4=very heavy infection.
# [3] = tested on: P. falciparum C2B (isolate resistant to the compound of example 1); format: cell-based; settings: drug combined with compound of Example 1, positive = synergistic, negative = antagonism, 0 = additive
# Method: as §1, §2, §3, §4, §5, §6, §7, §8, §9
# [4] = 25 mg/kg p.o. daily, +4 = very heavy infection
structure (smiles),measurement,setting,value
Oc1ncnc2[nH]ncc12 [Allopurinol],I (interaction parameter),[1],1.14
same,I (interaction parameter),[2],0.43
C[C@H]1[C@H](OC(=O)CCC(=O)O)O[C@@H]2O[C@@]3(C)CC[C@H]4[C@H](C)CC[C@@H]1[C@@]24OO3 [Artesunic acid],I (interaction parameter),[2],-0.18
"O=C1C(O)=C([C@H]2CC[C@H](c3ccc(Cl)cc3)CC2)C(=O)c2ccccc21 [Atovaquone, 2-[4-(4-chlorophenyl)cyclohexyl]-3-hydroxy-1,4-naphthoquinone]",percent survival,T. gondii C56 strain; 10 mg/kg,10%
same,Mean Time to Death,T. gondii C56 strain; 10 mg/kg,20.1 days
same,percent survival,T. gondii C56 strain; 25 mg/kg,10%
same,Mean Time to Death,T. gondii C56 strain; 25 mg/kg,24.1 days
same,Mean Score ±SE,Pneumocystis; 25 mg/kg p.o. daily,3.10 ± 0.17
same,No. Infected/No. Examined,Pneumocystis; 25 mg/kg p.o. daily,10/10
same,number of mice with SCORE +1,Pneumocystis; 25 mg/kg p.o. daily,0
same,number of mice with SCORE +3,Pneumocystis; 25 mg/kg p.o. daily,1
same,number of mice with SCORE +4,Pneumocystis; 25 mg/kg p.o. daily,7
same,number of mice with SCORE 0,Pneumocystis; 25 mg/kg p.o. daily,0
same,number of mice with SCORE +4,Pneumocystis; [4],2
same,Mean Score ±SE,Pneumocystis; 50 mg/kg p.o. daily,2.50 ± 0.16
same,No. Infected/No. Examined,Pneumocystis; 50 mg/kg p.o. daily,10/10
same,number of mice with SCORE +1,Pneumocystis; 50 mg/kg p.o. daily,0
same,number of mice with SCORE +3,Pneumocystis; 50 mg/kg p.o. daily,5
same,number of mice with SCORE +4,Pneumocystis; 50 mg/kg p.o. daily,5
same,number of mice with SCORE 0,Pneumocystis; 50 mg/kg p.o. daily,0
same,number of mice with SCORE +4,"Pneumocystis; 50 mg/kg p.o. daily, +4 = very heavy infection",0
same,infection score (in words),Pneumocystis; dosed alone,reductions in the infection score
same,% of Control,Pneumocystis; 25 mg/kg p.o. daily,84%
same,% of Control,Pneumocystis; 50 mg/kg p.o. daily,68%
CCN(CC)CCCC(C)Nc1ccnc2cc(Cl)ccc12 (centres unmarked) [Chloroquine],I (interaction parameter),[1],-1.84
same,I (interaction parameter),[2],-1.40
Cc1nc(C)c(Cl)c(O)c1Cl [Clopidol],I (interaction parameter),[2],0.73
CC1(C)N=C(N)N=C(N)N1c1ccc(Cl)cc1 [Cycloguanil],I (interaction parameter),[1],2.21
same,I (interaction parameter),[2],1.66
Nc1ccc(S(=O)(=O)c2ccc(N)cc2)cc1 [Dapsone],I (interaction parameter),[1],-0.39
OC(c1cc(C(F)(F)F)nc2c(C(F)(F)F)cccc12)C1CCCCN1 (centres unmarked) [Mefloquine],I (interaction parameter),[1],-1.19
CCn1cc(C(=O)O)c(=O)c2cc(F)c(N3CCNCC3)cc21 [Norfloxacin],I (interaction parameter),[1],1.02
CC(C)NC(=N)NC(=N)NOCCCOc1cc(Cl)c(Cl)cc1Cl [PS-15],I (interaction parameter),[2],-0.74
COc1cc(NC(C)CCCN)c2ncccc2c1 (centres unmarked) [Primaquine],I (interaction parameter),[1],-0.79
[H]/N=C(\N/C(=N/[H])Nc1ccc(Cl)cc1)NC(C)C [Proguanil],I (interaction parameter),[2],2.56
same,I (interaction parameter),[3],2.56
same,survivors,T. gondii C56 strain; 25 mg/kg,no survivors
same,toxicity to mice,T. gondii C56 strain; 25 mg/kg,exhibits signs of toxicity
same,Mean Time to Death,T. gondii C56 strain; 25 mg/kg,9.0 days and 9 days
same,Mean Score ±SE,Pneumocystis; 25 mg/kg p.o. daily,3.80 ± 0.13
same,No. Infected/No. Examined,Pneumocystis; 25 mg/kg p.o. daily,10/10
same,number of mice with SCORE +1,Pneumocystis; 25 mg/kg p.o. daily,0
same,number of mice with SCORE +3,Pneumocystis; 25 mg/kg p.o. daily,0
same,number of mice with SCORE +4,Pneumocystis; 25 mg/kg p.o. daily,2
same,number of mice with SCORE 0,Pneumocystis; 25 mg/kg p.o. daily,0
same,number of mice with SCORE +4,Pneumocystis; [4],8
same,prophylaxis of PCP in the scid mouse,Pneumocystis; alone at 25 mg/kg/day,ineffective
same,% of Control,Pneumocystis; 25 mg/kg p.o. daily,85%
CCc1nc(N)nc(N)c1-c1ccc(Cl)cc1 [Pyrimethamine],I (interaction parameter),[1],0.36
same,I (interaction parameter),[3],-0.48
Cc1cc(NS(=O)(=O)c2ccc(N)cc2)no1 [Sulfamethoxazole],I (interaction parameter),[1],2.75
CN(C)C1C(=O)C(C(N)=O)=C(O)C2(O)C(=O)C3=C(O)c4c(O)cccc4C(C)(O)C3CC12 (centres unmarked) [Tetracycline],I (interaction parameter),[1],1.27
same,I (interaction parameter),[2],1.11
COc1cc(Cc2cnc(N)nc2N)cc(OC)c1OC [Trimethoprim],I (interaction parameter),[1],1.27
same,I (interaction parameter),[3],0.58
CC1(C)N=C(N)N=C(N)N1OCCCOc1cc(Cl)c(Cl)cc1Cl [WR99210],I (interaction parameter),[1],0.02
